Here are results for 27 compounds from US9718828B2 (MERCK SHARP & DOHME CORP., priority 2011, dated 2017).

Molecules are shown by their SMILES. Where a name gives a salt, the structure may show the parent alone.

The target in one test is Btk enzyme (His-Btk) (Homo sapiens (Human), UniProt Q06187). Kind of test: Btk enzyme activity, IMAP fluorescence polarization assay (Assay Method A).
Btk enzyme (His-Btk), sequence (Q06187 whole entry): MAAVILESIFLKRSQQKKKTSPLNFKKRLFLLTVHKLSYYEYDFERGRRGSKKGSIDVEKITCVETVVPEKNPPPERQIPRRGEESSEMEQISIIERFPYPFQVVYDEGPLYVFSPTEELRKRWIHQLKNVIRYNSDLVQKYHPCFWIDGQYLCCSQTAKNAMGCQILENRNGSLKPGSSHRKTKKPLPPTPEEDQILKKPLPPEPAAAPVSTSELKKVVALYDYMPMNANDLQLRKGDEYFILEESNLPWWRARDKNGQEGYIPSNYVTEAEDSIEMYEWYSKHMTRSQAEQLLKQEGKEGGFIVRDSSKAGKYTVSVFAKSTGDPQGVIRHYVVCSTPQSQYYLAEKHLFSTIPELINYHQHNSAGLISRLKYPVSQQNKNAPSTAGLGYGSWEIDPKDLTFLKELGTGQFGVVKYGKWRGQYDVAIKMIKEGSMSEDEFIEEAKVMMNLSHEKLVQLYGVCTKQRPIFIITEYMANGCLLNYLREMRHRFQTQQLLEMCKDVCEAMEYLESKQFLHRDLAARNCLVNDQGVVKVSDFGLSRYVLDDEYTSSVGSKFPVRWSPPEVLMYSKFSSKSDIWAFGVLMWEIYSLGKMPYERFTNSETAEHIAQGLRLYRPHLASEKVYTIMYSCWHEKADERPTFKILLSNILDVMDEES
Conditions: not given
A word on the EC50: it is the midpoint of the concentration-response curve. `CCCc1ccnc(NC(=O)c2ccc(-c3nc(C)n4c(C(=O)NCCCOC)cnc(N)c34)cc2)c1` [Example 294, 8-amino-N-(3-methoxypropyl)-3-methyl-1-(4-(4-propylpyridin-2-ylcarbamoyl)phenyl)imidazo[1,5-a]pyrazine-5-carboxamide] came in with an EC50 of 100 to 1000 nM.

In the case of `CCC(=O)N1CCC[C@@H](c2nc(-c3ccc(C(=O)Nc4nc5c(s4)CC(C)CC5)cc3)c3c(N)nccn23)C1` (stereo in doubt) [Example 65, (R)-4-(8-amino-3-(1-propionylpiperidin-3-yl)imidazo[1,5-a]pyrazin-1-yl)-N-(6-methyl-4,5,6,7-tetrahydrobenzo[d]thiazol-2-yl)benzamide], the EC50 was less than 10 nM.

Consider `Nc1nccn2c([C@@H]3CCCN(C(=O)C4CCC4)C3)nc(-c3ccc(C(=O)Nc4cc(C5CC5)ccn4)cc3)c12` [Example 59, (R)-4-(8-amino-3-(1-(cyclobutanecarbonyl)piperidin-3-yl)imidazo[1,5-a]pyrazin-1-yl)-N-(4-cyclopropylpyridin-2-yl)benzamide], for which the EC50 was less than 10 nM.

In the case of `COCCOCCC(=O)N1CCC[C@@H](c2nc(-c3ccc(C(=O)Nc4cc(C(F)(F)F)ccn4)cc3)c3c(N)nccn23)C1` [Example 68, (R)-4-(8-amino-3-(1-(3-(2-methoxyethoxy)propanoyl)piperidin-3-yl)imidazo[1,5-a]pyrazin-1-yl)-N-(4-(trifluoromethyl)pyridin-2-yl)benzamide], the EC50 was less than 10 nM.

On to `CCC(=O)N1CCC[C@@H](c2nc(-c3ccc(C(=O)Nc4cc(C5CC5)ccn4)cc3)c3c(N)nccn23)C1` [Example 60, (R)-4-(8-amino-3-(1-propionylpiperidin-3-yl)imidazo[1,5-a]pyrazin-1-yl)-N-(4-cyclopropylpyridin-2-yl)benzamide], for which the concentration giving a half-maximal response (EC50) was less than 10 nM.

For `Cc1nc(-c2ccc(C(=O)Nc3cc(C(F)(F)F)ccn3)cc2)c2c(N)ncc(C(=O)N(C)C)n12` [Example 293, 8-amino-N,N,3-trimethyl-1-(4-(4-(trifluoromethyl)pyridin-2-ylcarbamoyl)phenyl)imidazo[1,5-a]pyrazine-5-carboxamide], the EC50 is no less than 1000 nM.

The compound `COCC1(C(=O)N2CCC[C@@H](n3nc(-c4ccc(C(=O)Nc5cc(C(F)(F)F)ccn5)cc4)c4c(N)ncnc43)C2)CCC1` [Example 272, (R)-4-(4-amino-1-(1-(1-(methoxymethyl)cyclobutanecarbonyl)piperidin-3-yl)-1H-pyrazolo[3,4-d]pyrimidin-3-yl)-N-(4-(trifluoromethyl)pyridin-2-yl)benzamide] yielded an EC50 of 10 to 100 nM.

`Nc1nccn2c([C@@H]3CCCN(C(=O)NC45CC6CC(CC(C6)C4)C5)C3)nc(-c3ccc(C(=O)Nc4cc(C5CC5)ccn4)cc3)c12` [Example 121] yielded an EC50 of 10 to 100 nM.

As for `CCOC(=O)N1CCCC(c2cc(-c3ccc(C(=O)Nc4cc(C(F)(F)F)ccn4)cc3)c3c(N)ncnn23)C1` (stereo not drawn) [Example 251, ethyl 3-(4-amino-5-(4-(4-(trifluoromethyl)pyridin-2-ylcarbamoyl)phenyl)pyrrolo[1,2-f][1,2,4]triazin-7-yl)piperidine-1-carboxylate], the concentration for a half-maximal effect (EC50) is less than 10 nM.

Compound `CCN(CC)C(=O)C1CCCN(c2nc(-c3ccc(C(=O)Nc4ccccn4)cc3)c3c(N)nccn23)C1` (stereo not drawn) [Example 230, 1-(8-amino-1-(4-(pyridin-2-ylcarbamoyl)phenyl)imidazo[1,5-a]pyrazin-3-yl)-N,N-diethylpiperidine-3-carboxamide, TFA salt] had an EC50 of 10 to 100 nM.

`Nc1nccn2c([C@@H]3CCCN(C(=O)C(F)(F)F)C3)nc(-c3ccc(C(=O)Nc4cc(C(F)(F)F)ccn4)cc3)c12` [Example 72, (R)-4-(8-amino-3-(1-(2,2,2-trifluoroacetyl)piperidin-3-yl)imidazo[1,5-a]pyrazin-1-yl)-N-(4-(trifluoromethyl)pyridin-2-yl)benzamide]: the EC50 is less than 10 nM.

`CCOC(=O)C1CC1CN1CCC[C@@H](c2nc(-c3ccc(C(=O)Nc4ccccn4)cc3)c3c(N)nccn23)C1` (stereo partly drawn) [Example 137, ethyl 2-(((R)-3-(8-amino-1-(4-(pyridin-2-ylcarbamoyl)phenyl)imidazo [1,5-a]pyrazin-3-yl)piperidin-1-yl)methyl) cyclopropanecarboxylate, TFA salt] registered an EC50 of 100 to 1000 nM.

Still in this test, the particulars now being: read-out: EC50 Btk activity values - Assay Method A; IMAP-FP, 60 min pre-incubation, 5 μM ATP; class 100-1000 is given as ≧100 nM-<1 μM.
On to `Nc1nccn2c(N3CCC[C@H](NC(=O)C4CC4)C3)nc(-c3ccc(C(=O)Nc4cc(C(F)(F)F)ccn4)cc3)c12` [Example 222, (S)-4-(8-amino-3-(3-(cyclopropanecarboxamido)piperidin-1-yl)imidazo[1,5-a]pyrazin-1-yl)-N-(4-(trifluoromethyl)pyridin-2-yl)benzamide], for which the EC50 was less than 10 nM.

As for `CCOCCC(=O)N1CCC[C@@H](n2nc(-c3ccc(C(=O)Nc4cc(C(F)(F)F)ccn4)cc3)c3c(N)ncnc32)C1` [Example 281, (R)-4-(4-amino-1-(1-(3-ethoxypropanoyl)piperidin-3-yl)-1H-pyrazolo[3,4-d]pyrimidin-3-yl)-N-(4-(trifluoromethyl)pyridin-2-yl)benzamide], the EC50 is less than 10 nM.

`COCCC(=O)N1CCOC(c2nc(-c3ccc(C(=O)Nc4cc(C(F)(F)F)ccn4)cc3)c3c(N)ncc(Cl)n23)C1` (stereo not drawn) [Example 314, 4-(8-amino-5-chloro-3-(4-(3-methoxypropanoyl)morpholin-2-yl)imidazo[1,5-a]pyrazin-1-yl)-N-(4-(trifluoromethyl)pyridin-2-yl)benzamide]: the EC50 was less than 10 nM.

`Nc1ncnc2c1c(-c1ccc(C(=O)Nc3cc(C(F)(F)F)ccn3)cc1)nn2[C@@H]1CCCN(C(=O)C2CCC2)C1` [Example 277, (R)-4-(4-amino-1-(1-(cyclobutanecarbonyl)piperidin-3-yl)-1H-pyrazolo[3,4-d]pyrimidin-3-yl)-N-(4-(trifluoromethyl)pyridin-2-yl)benzamide]: the EC50 is less than 10 nM.

With `CC1(C(=O)N2CCC[C@@H](c3nc(-c4ccc(C(=O)Nc5cc(C(F)(F)F)ccn5)cc4)c4c(N)ncc(/C=C/c5ccc(F)cc5)n34)C2)COC1` [Example 318, (R,E)-4-(8-amino-5-(4-fluorostyryl)-3-(1-(3-methyloxetane-3-carbonyl)piperidin-3-yl)imidazo[1,5-a]pyrazin-1-yl)-N-(4-(trifluoromethyl)pyridin-2-yl)benzamide], the EC50 was less than 10 nM.

Take `CONC(=O)C1CCCN(c2nc(-c3ccc(C(=O)Nc4cc(C(F)(F)F)ccn4)cc3)c3c(N)nccn23)C1` (stereo not drawn) [Example 242, 1-(8-amino-1-(4-(4-(trifluoromethyl)pyridin-2-ylcarbamoyl)phenyl)imidazo[1,5-a]pyrazin-3-yl)-N-methoxypiperidine-3-carboxamide, TFA salt]: the EC50 is less than 10 nM.

Take `CSCCC(=O)N1C[C@H](c2nc(-c3ccc(C(=O)Nc4cc(C5CC5)ccn4)cc3)c3c(N)nccn23)CC[C@@H]1C` (relative stereo) [Example 198, 4-(8-amino-3-((cis)-6-methyl-1-(3-(methylthio)propanoyl)-piperidin-3-yl)imidazo[1,5-a]pyrazin-1-yl)-N-(4-cyclopropylpyridin-2-yl)benzamide, TFA salt]: the EC50 was less than 10 nM.

With `Nc1nccn2c([C@@H]3CCCNC3)nc(-c3ccc(C(=O)Nc4cc(C(F)(F)F)ccn4)cc3)c12` [Example 106, (R)-4-(8-amino-3-(piperidin-3-yl)imidazo[1,5-a]pyrazin-1-yl)-N-(4-(trifluoromethyl)pyridin-2-yl)benzamide], the EC50 is less than 10 nM.

For `CC1(C(=O)N2CCOC(c3nc(-c4ccc(C(=O)Nc5cc(C(F)(F)F)ccn5)cc4)c4c(N)ncc(Cl)n34)C2)COC1` (stereo not drawn) [Example 315, 4-(8-amino-5-chloro-3-(4-(3-methyloxetane-3-carbonyl)morpholin-2-yl)imidazo[1,5-a]pyrazin-1-yl)-N-(4-(trifluoromethyl)pyridin-2-yl)benzamide], the EC50 was less than 10 nM.

In the case of `CCOC(=O)N1CCC[C@@H](n2nc(-c3ccc(C(=O)Nc4cc(C(F)(F)F)ccn4)cc3)c3c(N)ncnc32)C1` [Example 273, (R)-ethyl 3-(4-amino-3-(4-(4-(trifluoromethyl)pyridin-2-ylcarbamoyl)phenyl)-1H-pyrazolo[3,4-d]pyrimidin-1-yl)piperidine-1-carboxylate], the EC50 was less than 10 nM.

Consider `C[C@H]1CC[C@@H](c2nc(-c3ccc(C(=O)Nc4cc(C(F)(F)F)ccn4)cc3)c3c(N)nccn23)CN1C(=O)C1CCCO1` (relative stereo) [Example 194, 4-(8-amino-3-((cis)-6-methyl-1-(tetrahydrofuran-2-carbonyl)piperidin-3-yl)imidazo[1,5-a]pyrazin-1-yl)-N-(4-(trifluoromethyl)pyridin-2-yl)benzamide, TFA salt], for which the EC50 is less than 10 nM.

Regarding `CC1(C(=O)N2CCC[C@@H](c3nc(-c4ccc(C(=O)Nc5cc(C(F)(F)F)ccn5)cc4)c4c(N)ncc(Cl)n34)C2)COC1` [Example 301, (R)-4-(8-amino-5-chloro-3-(1-(3-methyloxetane-3-carbonyl)piperidin-3-yl)imidazo[1,5-a]pyrazin-1-yl)-N-(4-(trifluoromethyl)pyridin-2-yl)benzamide], the EC50 is less than 10 nM.

As for `Nc1nccn2c(C3CCOCC3)nc(-c3ccc(C(=O)Nc4cc(C(F)(F)F)ccn4)cc3)c12` [Example 25, 4-(8-amino-3-(tetrahydro-2H-pyran-4-yl)imidazo[1,5-a]pyrazin-1-yl)-N-(4-(trifluoromethyl)pyridin-2-yl)benzamide], the EC50 is less than 10 nM.

Regarding `Nc1nccn2c(N3CCCC(C(=O)N4CCCC4)C3)nc(-c3ccc(C(=O)Nc4cc(C5CC5)ccn4)cc3)c12` (stereo not drawn) [Example 247, 4-(8-amino-3-(3-(pyrrolidine-1-carbonyl)piperidin-1-yl)imidazo[1,5-a]pyrazin-1-yl)-N-(4-cyclopropylpyridin-2-yl)benzamide, TFA salt], the EC50 is less than 10 nM.

Turning to `Nc1nccn2c([C@@H]3CCC[C@@H](NC(=O)C4CC4)C3)nc(-c3ccc(C(=O)Nc4cc(C(F)(F)F)ccn4)cc3)c12` (relative stereo) [Example 164, 4-(8-amino-3-((trans)-3-(cyclopropanecarboxamido)cyclohexyl)imidazo[1,5-a]pyrazin-1-yl)-N-(4-(trifluoromethyl)pyridin-2-yl)benzamide], the concentration for a half-maximal effect (EC50) was less than 10 nM.
